The term IC50 denotes the concentration at which inhibition is half-maximal. Low values mean greater potency in that assay, high ones weaker potency in that assay. One may read the melting point as the temperature, or range, at which the solid turns liquid.

Among the data in patent US7678810B2, “Thiazole derivative” (Taisho Pharmaceutical Co., Ltd, priority 2004, dated 2010) are IC50 and melting point values, retold here.

For series [1], the system named is Smad2/3 phosphorylation caused by TGF-β1 stimulation. In words: Smad2/3 phosphorylation inhibitory activity test. In kind it is cell-based. Particulars: Homo sapiens; A549 cells; compound 2 hours before TGF-β1 1 ng/ml, 1 hour; anti-Smad2/3 immunoprecipitation, Western blotting. On the procedure: A549 cells were seeded to a plate, and cultured overnight in a Ham's F-12 medium supplemented with 10% FBS. This medium was replaced with the same medium containing the compounds or not containing the compounds, and after incubated another 2 hours, TGF-01 was added thereto so as to make its final concentration 1 ng/ml, and further incubated another 1 hour. After completion of incubation, the medium was removed, and the cells were washed with PBS and then lysed by a RIPA solution. The cell lysate solution was subjected to immunoprecipitation using anti-Smad2/3 antibody, and then Western blotting was performed. Using a rabbit anti-phosphorylated serine antibody as a primary antibody, a HRP-labeled anti-rabbit IgG antibody as a secondary antibody, and ECL Western blotting detection reagents as detection reagents, light emitting amounts were measured using Limi-Imager F1 (Roche Diagnostics) etc.
Following the above described methods, the inhibitory activities of the respective compounds against Smad2/3 phosphorylation caused by TGF-β1 stimulation were measured, and IC50 values were calculated.
For orientation: Immunoblotting shows a protein as a band on a membrane.

As to `Cc1csc(-c2nc(-c3ccc(C(N)=O)cc3)[nH]c2-c2ccc3ncsc3c2)n1` [Compound 50], it took 80 nM to reach half-maximal inhibition in series [1] (IC50).
Same read-out and setting: then `Cc1csc(-c2nc(C)[nH]c2-c2ccc3ncsc3c2)n1` [Compound 52], with 24 nM; and `CCCCc1nc(-c2nc(C)cs2)c(-c2ccc3ncsc3c2)[nH]1` [Compound 57], with 45 nM; and `Cc1csc(-c2nc(N)[nH]c2-c2ccc3ncsc3c2)n1` [Compound 68], with 31 nM.
On the same count and under the same terms, then `Cc1csc(-c2nc(C3CCC(=O)CC3)[nH]c2-c2ccc3ncsc3c2)n1` [Compound 80], with 89 nM; and `CCCC(O)CCc1nc(-c2nc(C)cs2)c(-c2ccc3ncsc3c2)[nH]1` (stereo not shown) [Compound 81], with 52 nM.
For the compound `Cc1csc(-c2nc(C3CCOCC3)[nH]c2-c2ccc3ncsc3c2)n1` [Compound 83], the IC50 in series [1] worked out at 99 nM.
Still for that read-out and setting: then `COCCCCc1nc(-c2nc(C)cs2)c(-c2ccc3ncsc3c2)[nH]1` [Compound 87], with 38 nM.
On the same count and under the same terms, then `CCCC(=O)NCc1nc(-c2nc(C)cs2)c(-c2ccc3ncsc3c2)[nH]1` [Compound 105], with 32 nM.
As for `COCC(=O)NCc1nc(-c2nc(C)cs2)c(-c2ccc3ncsc3c2)[nH]1` [Compound 124], the melting point is 223.5 to 224 °C. This compound registered an IC50 in series [1] of 67 nM.
Regarding `Cc1csc(-c2nc(CNC(=O)C3CCOCC3)[nH]c2-c2ccc3ncsc3c2)n1` [Compound 129], the melting point lay within 197 to 197.5 °C. The compound also registered an IC50 in series [1] of 107 nM.
With `CCCNC(=O)CCCCc1nc(-c2nc(C)cs2)c(-c2ccc3ncsc3c2)[nH]1` [Compound 171], in series [1], the half-inhibitory concentration (IC50) worked out at 89 nM.
Compound `CCNC(=O)NCc1nc(-c2nc(C)cs2)c(-c2ccc3ncsc3c2)[nH]1` [Compound 175] came in with a half-maximal inhibitory concentration (IC50) in series [1] of 126 nM.
Same read-out and setting: then `Cc1csc(-c2nc(CNC(=O)N(C)C)[nH]c2-c2ccc3ncsc3c2)n1` [Compound 176], with 77 nM.
In turn, `CCCNC(=O)NCc1nc(-c2nc(C)cs2)c(-c2ccc3ncsc3c2)[nH]1` [Compound 177] displayed a melting point of 179.5 to 182 °C.
The compound `Cc1csc(-c2nc(CNC(=O)NC(C)C)[nH]c2-c2ccc3ncsc3c2)n1` [Compound 178] came in with a melting point of 178.5 to 180 °C.
Regarding `CCCCNC(=O)NCc1nc(-c2nc(C)cs2)c(-c2ccc3ncsc3c2)[nH]1` [Compound 179], the melting point was in the range of 190.5 to 191.5 °C.
The same measure, in the same setting: then `CCN(CC)C(=O)NCc1nc(-c2nc(C)cs2)c(-c2ccc3ncsc3c2)[nH]1` [Compound 181], with 222.5 to 223 °C.
As for `CCCCCNC(=O)NCc1nc(-c2nc(C)cs2)c(-c2ccc3ncsc3c2)[nH]1` [Compound 182], the melting point fell in the range of 199 to 201 °C.
The same measure, in the same setting: then `Cc1csc(-c2nc(CNC(=O)NC3CCCC3)[nH]c2-c2ccc3ncsc3c2)n1` [Compound 183], with 185.5 to 188 °C; and `Cc1csc(-c2nc(CNC(=O)N3CCOCC3)[nH]c2-c2ccc3ncsc3c2)n1` [Compound 185], with 205.5 to 206 °C.
As to `COC(=O)NCc1nc(-c2nc(C)cs2)c(-c2ccc3ncsc3c2)[nH]1` [Compound 186], in series [1], the IC50 is 38 nM.
For `CCOC(=O)NCc1nc(-c2nc(C)cs2)c(-c2ccc3ncsc3c2)[nH]1` [Compound 187], the melting point was in the range of 183 to 184 °C.
As to `Cc1csc(-c2nc(CNC(=O)OCCCl)[nH]c2-c2ccc3ncsc3c2)n1` [Compound 188], the melting point was 202 to 204 °C (dec.).
Turning to `C#CCOC(=O)NCc1nc(-c2nc(C)cs2)c(-c2ccc3ncsc3c2)[nH]1` [Compound 191], the midpoint of inhibition in series [1], the IC50, lay at 31 nM.
For `CCCCOC(=O)NCc1nc(-c2nc(C)cs2)c(-c2ccc3ncsc3c2)[nH]1` [Compound 193], the melting point lay within 161 to 162 °C.
For the compound `Cc1csc(-c2nc(CNC(=O)OCC(C)C)[nH]c2-c2ccc3ncsc3c2)n1` [Compound 194], the melting point is 142.5 to 144 °C.
Still for that read-out and setting: then `CCCCCOC(=O)NCc1nc(-c2nc(C)cs2)c(-c2ccc3ncsc3c2)[nH]1` [Compound 195], with 177.5 to 178.5 °C; and `Cc1csc(-c2nc(CNC(=O)OCC(C)(C)C)[nH]c2-c2ccc3ncsc3c2)n1` [Compound 196], with 170.5 to 171.5 °C.
With `Cc1csc(-c2nc(CN3CCOC3=O)[nH]c2-c2ccc3ncsc3c2)n1` [Compound 197], the IC50 in series [1] amounted to 92 nM.
Still for that read-out and setting: then `CCNC(=O)OCc1nc(-c2nc(C)cs2)c(-c2ccc3ncsc3c2)[nH]1` [Compound 198], with 93 nM.
For the compound `Cc1csc(-c2nc(COC(=O)N(C)C)[nH]c2-c2ccc3ncsc3c2)n1` [Compound 199], the melting point is 181.5 to 182 °C. In addition, in series [1], half-maximal inhibition (IC50) required 70 nM.
Turning to `CCCC(=O)CCc1nc(-c2nc(C)cs2)c(-c2ccc3ncsc3c2)[nH]1` [Compound 201], in series [1], the IC50 was found to be 42 nM.
As for `N#Cc1ccc(-c2nc(-c3nccs3)c(-c3ccccn3)n2O)cc1` [Compound 202], the melting point is 248 to 251 °C (dec.).
Still for that read-out and setting: then `Cc1csc(C(=O)C(=O)c2ccc3c(c2)OCO3)n1` [Compound 203], with 131.5 to 132.5 °C; and `Cc1csc(C(=O)C(=O)c2ccc(F)cc2)n1` [Compound 206], with 75 to 77 °C; and `Cc1csc(C#Cc2ccc3c(c2)OCO3)n1` [Compound 217], with 111.5 to 112 °C.
The compound `Cc1csc(C#Cc2ccc(F)cc2)n1` [Compound 219] displayed a melting point of 82 to 83 °C.
On the same count and under the same terms, then `Cc1csc(-c2nc(C3CCC(=O)N3)[nH]c2-c2ccc3ncsc3c2)n1` (stereo not shown) [Compound 229], with 273 to 275 °C (dec.); and `Cc1csc(-c2nc(C3CCC(=O)N3)[nH]c2-c2ccc3ncsc3c2)n1` (stereo not shown) [Compound 230], with 263 to 268 °C (dec.).
Compound `COc1ccc(Cn2c(C)nc(-c3nc(C)cs3)c2-c2ccc3ncsc3c2)cc1` [Compound 231] showed a melting point of 144 to 145 °C.
In turn, `Cc1csc(-c2nc(C)n(Cc3ccc(O)cc3)c2-c2ccc3ncsc3c2)n1` [Compound 232] had a melting point of 215.5 to 218.5 °C.
For `Cc1csc(-c2nc(C)n(Cc3ccc(OCCN(C)C)cc3)c2-c2ccc3ncsc3c2)n1` [Compound 233], the melting point lay within 146.5 to 148 °C.
The same measure, in the same setting: then `COCCOc1ccc(Cn2c(C)nc(-c3nc(C)cs3)c2-c2ccc3ncsc3c2)cc1` [Compound 234], with 129.5 to 131 °C.
As to `CNC(=O)OCc1nc(-c2nc(C)cs2)c(-c2ccc3ncsc3c2)[nH]1` [Compound 235], the melting point lay in the range of 158 to 159.5 °C.
On the same count and under the same terms, then `CNC(=O)NCc1nc(-c2nc(C)cs2)c(-c2ccc3ncsc3c2)[nH]1` [Compound 238], with 239 to 239.5 °C; and `Cc1csc(-c2nc(CNC(=O)C3CCCCO3)[nH]c2-c2ccc3ncsc3c2)n1` (stereo not shown) [Compound 241], with 220.5 to 222 °C.
For the compound `Cc1nc(-c2nc(C(F)(F)F)cs2)c(-c2ccc3ncsc3c2)[nH]1` [Compound 244], the melting point is 190.5 to 192 °C.
Same read-out and setting: then `O=C(C(=O)c1nc(C(F)(F)F)cs1)c1ccc2ncsc2c1` [Compound 251], with 163.5 to 164.5 °C.
